{
  "source": "patent EP4729058A1",
  "about": "“AGENT FOR PROMOTING ENERGY CONSUMPTION” (Otsuka Pharmaceutical Factory, Inc., priority 2023, dated 2024)",
  "format_in_all_cases": "in vivo, Mouse, C57BL/6J, male",
  "key": {"[1]": {"test": "Analysis of exhaled gas (energy metabolism measurement system for small animals)", "settings": "over 24 hours after morning administration on day 82, 720 mg/10mL/kg oral twice a day, ultra high fat diet, n=10", "method": "A 32-channel energy metabolism measurement system for small animals (ARCO-2000-RAT, Arco System Inc.) was used to measure exhaled gas. Oxygen consumption (mL/min) and Carbon dioxide production (mL/min) of the animals were measured every 10 minutes at an air flow rate of 0.3 L/min. Measurements were carried out for about 24 hours after the completion of oral administration in the morning of the day before necropsy, and total oxygen consumption (mL/kg/day), energy consumption (kcal/kg/day), and lipid burning (mg/kg/day) over 24 hours were calculated using the following formulae: Calculation formulae: [formula] [formula] [formula] (VO2: oxygen consumption, VCO2: carbon dioxide production)\nAnimals after arrival were fed ad libitum a solid diet of ultra high fat diet (D12492). After an acclimatization period, the animals were divided into groups according to the body weight. Then, the animals were individually housed and fed ad libitum the ultra high fat diet. The test substance was orally administered to all groups twice daily (once in the morning and once in the afternoon) (CON group: 0.5% CMC was orally administered; compound A administered group: compound A was orally administered). The day of the first administration was regarded as day 0 from the start of the test. Here, 5 animals from each group were regarded as the first-half animals, and the rest were regarded as the second-half animals, and feeding and administration for the second-half animals were started on day 2 from the start of the test of the first-half animals (day 0 from the start of the test of the second-half animals). In order for the animals to be acclimated to the environment inside an exhaled gas measurement chamber, the animals after oral administration in the morning (9:00) at days 7, 21, and 49 days from the start of the test were individually accommodated in the exhaled gas measurement chamber for 5.5 hours (10:00-15:30) with free access to water under fasting conditions. On days 28 and 65, after oral administration in the morning (11:00), all applicable animals were promptly accommodated individually in the exhaled gas measurement chamber, and acclimated for about 24 hours with free access to water and food. Oral administration was carried out in the afternoon of the same day (15:30) and in the morning of the next day (8:30), and the animals after administration were promptly accommodated in the exhaled gas measurement chamber again. After acclimation, the animals were returned to the cages for housing them. […] Oral administration was carried out in the morning (11:00) and afternoon (15:30) of the same day, and after oral administration in the morning (8:30) of the next day, exhaled gas was measured until necropsy. […]"}, "[2]": {"test": "Rectal temperature before necropsy", "settings": "before necropsy (day 83); 720 mg/10mL/kg oral twice a day for 12 weeks, ultra high fat diet; n=10; p < 0.01 vs CON", "excerpt": "Before necropsy, a temperature controller for small animals (NS-TC10 Temperature Controller, Neuroscience, Inc.) equipped with a probe for measuring the rectal temperature was inserted into the rectum to measure the rectal temperature.\n(§1) Animals after arrival were fed ad libitum a solid diet of ultra high fat diet (D12492). After an acclimatization period, the animals were divided into groups according to the body weight. Then, the animals were individually housed and fed ad libitum the ultra high fat diet. The test substance was orally administered to all groups twice daily (once in the morning and once in the afternoon) (CON group: 0.5% CMC was orally administered; compound A administered group: compound A was orally administered). The day of the first administration was regarded as day 0 from the start of the test. Here, 5 animals from each group were regarded as the first-half animals, and the rest were regarded as the second-half animals, and feeding and administration for the second-half animals were started on day 2 from the start of the test of the first-half animals (day 0 from the start of the test of the second-half animals). […] Oral administration was carried out in the morning (11:00) and afternoon (15:30) of the same day, and after oral administration in the morning (8:30) of the next day, exhaled gas was measured until necropsy. […]"}, "[3]": {"test": "Body weight measurement", "settings": "for Body weight: ultra high fat diet, n=10", "method": "Measurements were carried out at the time of arrival and every week from the day of grouping until the time of necropsy. Measurements were also carried out on the day of measuring the body composition and immediately before necropsy.\n(§2) Animals after arrival were fed ad libitum a solid diet of ultra high fat diet (D12492). After an acclimatization period, the animals were divided into groups according to the body weight. Then, the animals were individually housed and fed ad libitum the ultra high fat diet. The test substance was orally administered to all groups twice daily (once in the morning and once in the afternoon) (CON group: 0.5% CMC was orally administered; compound A administered group: compound A was orally administered). The day of the first administration was regarded as day 0 from the start of the test. Here, 5 animals from each group were regarded as the first-half animals, and the rest were regarded as the second-half animals, and feeding and administration for the second-half animals were started on day 2 from the start of the test of the first-half animals (day 0 from the start of the test of the second-half animals). In order for the animals to be acclimated to the environment inside an exhaled gas measurement chamber, the animals after oral administration in the morning (9:00) at days 7, 21, and 49 days from the start of the test were individually accommodated in the exhaled gas measurement chamber for 5.5 hours (10:00-15:30) with free access to water under fasting conditions. On days 28 and 65, after oral administration in the morning (11:00), all applicable animals were promptly accommodated individually in the exhaled gas measurement chamber, and acclimated for about 24 hours with free access to water and food. Oral administration was carried out in the afternoon of the same day (15:30) and in the morning of the next day (8:30), and the animals after administration were promptly accommodated in the exhaled gas measurement chamber again. After acclimation, the animals were returned to the cages for housing them. On day 82, all applicable animals were promptly accommodated in the exhaled gas measurement chamber (10:00) before oral administration in the morning. Oral administration was carried out in the morning (11:00) and afternoon (15:30) of the same day, and after oral administration in the morning (8:30) of the next day, exhaled gas was measured until necropsy. The animals were subjected to necropsy in the afternoon on day 83 (13:00). At the time of necropsy, laparotomy was performed under isoflurane anesthesia, and blood was collected from the caudal vena cava. After blood collection, the animals were euthanized by bleeding from the site of blood collection, and organs (fat, skeletal muscle) were collected."}, "[4]": {"test": "Body composition (body composition analyzer, Echo MRI-700)", "settings": "720 mg/10mL/kg oral twice a day, ultra high fat diet, n=10", "method": "The body fat mass and the lean body mass were measured with a body composition analyzer (Echo MRI-700, Hitachi, Ltd.) at 6, 9, and 12 weeks of the test food intake, and divided by the body weight to calculate body fat percentage and lean body mass percentage.\nas §2"}, "[5]": {"test": "White fat tissue weight at necropsy", "settings": "white fat weight per body weight at necropsy, 720 mg/10mL/kg oral twice a day for 12 weeks, ultra high fat diet, n=10", "excerpt": "as §2\nAt the time of necropsy, fat around the left and right epididymides was taken out, and then the epididymides were discarded. […]"}, "[6]": {"test": "Skeletal muscle weight at necropsy", "settings": "720 mg/10mL/kg oral twice a day for 12 weeks, ultra high fat diet, n=10, p<0.05 vs CON", "excerpt": "as §2, with “collected. […]” for “collected.”"}, "[7]": {"test": "Total cholesterol in plasma at necropsy", "settings": "720 mg/10mL/kg oral twice a day for 12 weeks, ultra high fat diet, n=10, p < 0.01 vs CON", "excerpt": "as §1"}, "[8]": {"settings": "calculated from VO2 and VCO2, p < 0.01 vs CON"}, "[9]": {"settings": "muscle weight per body weight at necropsy, left and right together"}},
  "data": [
    {"smiles": "O=C(O)CC(C(=O)O)N1C(=O)CC(O)(CC(=O)O)C1=O", "note": "(racemic) [Compound A]", "values": [
      {"measurement": "total carbon dioxide production", "setting": "[1]", "result": 28.277, "unit": "mL/min/kg"},
      {"measurement": "total oxygen consumption", "setting": "[1]; p < 0.01 vs CON", "result": 35.682, "unit": "mL/min/kg"},
      {"measurement": "total energy consumption", "setting": "[1]; [8]", "result": 243, "unit": "kcal/kg/day"},
      {"measurement": "total lipid burning", "setting": "[1]; [8]", "result": 17768, "unit": "mg/kg/day"},
      {"measurement": "Rectal temperature", "setting": "[2]", "result": 35.7, "unit": "°C"},
      {"measurement": "Body weight", "setting": "[3]; 1 week, 720 mg/10mL/kg oral twice a day", "result": 24.9, "unit": "g"},
      {"measurement": "Body weight", "setting": "[3]; 2 weeks, 720 mg/10mL/kg oral twice a day", "result": 25.1, "unit": "g"},
      {"measurement": "Body weight", "setting": "[3]; 3 weeks, 720 mg/10mL/kg oral twice a day", "result": 25.3, "unit": "g"},
      {"measurement": "Body weight", "setting": "[3]; 4 weeks, 720 mg/10mL/kg oral twice a day", "result": 25.4, "unit": "g"},
      {"measurement": "Body weight", "setting": "[3]; 5 weeks, 720 mg/10mL/kg oral twice a day", "result": 25.8, "unit": "g"},
      {"measurement": "Body weight", "setting": "[3]; 6 weeks, 720 mg/10mL/kg oral twice a day", "result": 26.4, "unit": "g"},
      {"measurement": "Body weight", "setting": "[3]; 7 weeks, 720 mg/10mL/kg oral twice a day, p=0.087 vs CON", "result": 26.8, "unit": "g"},
      {"measurement": "Body weight", "setting": "[3]; 8 weeks, 720 mg/10mL/kg oral twice a day, p=0.082 vs CON", "result": 27.3, "unit": "g"},
      {"measurement": "Body weight", "setting": "[3]; 9 weeks, 720 mg/10mL/kg oral twice a day, p=0.068 vs CON", "result": 27.8, "unit": "g"},
      {"measurement": "Body weight", "setting": "[3]; 10 weeks, 720 mg/10mL/kg oral twice a day, p < 0.05 vs CON", "result": 27.2, "unit": "g"},
      {"measurement": "Body weight", "setting": "[3]; 11 weeks, 720 mg/10mL/kg oral twice a day, p < 0.05 vs CON", "result": 28.3, "unit": "g"},
      {"measurement": "Body weight", "setting": "[3]; 12 weeks, 720 mg/10mL/kg oral twice a day, p < 0.05 vs CON", "result": 28.9, "unit": "g"},
      {"measurement": "Body weight", "setting": "[3]; Before administration (baseline)", "result": 25.1, "unit": "g"},
      {"measurement": "body weight gain relative to the body weight gain of the CON group being 100%", "setting": "[3]; after 12 weeks of administration, (3.8 / 7.2) × 100", "result": 52.8, "unit": "%"},
      {"measurement": "mean body weight gain", "setting": "[3]; after 12 weeks of administration, CON group 7.2 g", "result": 3.8, "unit": "g"},
      {"measurement": "Lean body mass percentage", "setting": "[4]; 6 weeks, p=0.057 vs CON", "result": 79.6, "unit": "%"},
      {"measurement": "Body fat percentage", "setting": "[4]; 6 weeks, p=0.092 vs CON", "result": 15.6, "unit": "%"},
      {"measurement": "Body fat percentage", "setting": "[4]; 9 weeks, p < 0.05 vs CON", "result": 17.7, "unit": "%"},
      {"measurement": "Lean body mass percentage", "setting": "[4]; 9 weeks, p < 0.05 vs CON", "result": 77.3, "unit": "%"},
      {"measurement": "Body fat percentage", "setting": "[4]; 12 weeks, p < 0.01 vs CON", "result": 19.0, "unit": "%"},
      {"measurement": "Lean body mass percentage", "setting": "[4]; 12 weeks, p < 0.01 vs CON", "result": 74.7, "unit": "%"},
      {"measurement": "Epididymal fat", "setting": "[5]; p < 0.01 vs CON", "result": 32.18, "unit": "g/Kg body weight"},
      {"measurement": "Perirenal fat", "setting": "[5]; p < 0.01 vs CON", "result": 12.12, "unit": "g/Kg body weight"},
      {"measurement": "Interscapular fat", "setting": "[5]; p<0.05 vs CON", "result": 1.88, "unit": "g/Kg body weight"},
      {"measurement": "Mesenteric fat", "setting": "[5]; p<0.05 vs CON", "result": 10.10, "unit": "g/Kg body weight"},
      {"measurement": "Anterior tibialis muscle", "setting": "[6]; [9]", "result": 3.53, "unit": "g/Kg body weight"},
      {"measurement": "Extensor digitorum longus muscle", "setting": "[6]; [9]", "result": 0.84, "unit": "g/Kg body weight"},
      {"measurement": "Plantaris muscle", "setting": "[6]; [9]", "result": 1.31, "unit": "g/Kg body weight"},
      {"measurement": "Muscles (Total weight of 3 types of muscle)", "setting": "[6]; plantaris, anterior tibial and extensor digitorum longus muscle, per body weight at necropsy", "result": 5.68, "unit": "g/Kg body weight"},
      {"measurement": "Total cholesterol", "setting": "[7]", "result": 149.4, "unit": "mg/dL"}
    ]}
  ]
}
